According to article PMC3092152 (Molecular oral microbiology, 2011):
Where no end group is shown, it is not given here.

Test system: S. mutans clinical strains
Assay: alamarBlue antimicrobial susceptibility test
Assay type: cell-based, Streptococcus mutans
Settings: preliminary experiments; 16 S. mutans strains; peptide concentrations 20 μg/ml or below

Molecule | susceptibility of S. mutans strains to the peptide
HBD-1: human β-defensin, salivary cationic antimicrobial peptide (DHYNCVSSGGQCLYSACPIFTKIQGTCYRGKAKCCK; ends and bridges not checked; cysteine pairing not given here; UniProt P60022 33-68, looked up) | no susceptibility
histatin-5 | no susceptibility
lysozyme: host protein tested in preliminary experiments against 16 S. mutans strains (protein, UniProt P61626 19-148, looked up) Lysozyme C: KVFERCELARTLKRLGMDGYRGISLANWMCLAKWESGYNTRATNYNAGDRSTDYGIFQINSRYWCNDGKTPGAVNACHLSCSALLQDNIADAVACAKRVVRDPQGIRAWVAWRNRCQNRDVRQYVQGCGV | no susceptibility
